Several values for one entry are separate records, joined by “and”; a condition that tells them apart may be missing. Equal values may be shown once. After the bases stand the sugars from the 5' end (letter, count) and the backbone: PS all phosphorothioate, else s phosphorothioate and o phosphodiester by linkage. Methylation of C is not given here. e = 2'-O-(2-methoxyethyl) (MOE); k = constrained ethyl (cEt); d = 2'-deoxy (DNA)
Target: SOD1
Settings: ASO

Work on “ATACATTTCTACAGCT (sugars kekeddddddddekek, linkages s1 o3 s8 o1 s2)” yielded a target mRNA inhibition (A431, 0.12 µM) of 15%, a target mRNA inhibition (A431, 0.6 µM) of 14% and a target mRNA inhibition (A431, 3 µM) of 16%. It also gave a target mRNA inhibition (A431, 15 µM) of 52%, a target mRNA inhibition (HepG2, 0.222 µM) of 55% and a target mRNA inhibition (HepG2, 0.667 µM) of 73%. It also gave a target mRNA inhibition (HepG2, 2 µM) of 89% and a target mRNA inhibition (HepG2, 6 µM) of 95%.

“ATACATTTCTACAGCTA (sugars e3 k2 d7 k2 e3, linkages s1 o2 s9 o2 s2)” gave a target mRNA inhibition (A431, 0.12 µM) of 4%, a target mRNA inhibition (A431, 0.6 µM) of 13% and a target mRNA inhibition (A431, 3 µM) of 26%. It also gave a target mRNA inhibition (A431, 15 µM) of 37%.

With “ATACATTTCTACAGCTAG (sugars e5 d8 e5, linkages s1 o3 s9 o2 s2)” the target mRNA inhibition (A431, 0.12 µM) was 9%, the target mRNA inhibition (A431, 0.6 µM) was 10% and the target mRNA inhibition (A431, 3 µM) was 27%. The target mRNA inhibition (A431, 15 µM) was 43%, the target mRNA inhibition (HepG2, 0.222 µM) was 7% and the target mRNA inhibition (HepG2, 0.667 µM) was 28%. The target mRNA inhibition (HepG2, 2 µM) was 54% and the target mRNA inhibition (HepG2, 6 µM) was 79%.

Sequence “ATAGCCTCATAATAAGTGCC (sugars e5 d10 e5, PS)” has a target mRNA inhibition (HepG2, 5 µM) of 19%.

For “ATCACAGAATCTTCAATAGA (sugars e5 d10 e5, PS)”, the target mRNA inhibition (HepG2, 5 µM) was 11% and 10%.

For “ATCCAAGGGAATGTTTA (sugars e2 k2 d8 k2 e3, PS)”, the target mRNA inhibition (HepG2, 4 µM) was 35%.

With “ATCCAAGGGAATGTTTA (sugars e2 k2 d9 k2 e2, PS)” the target mRNA inhibition (HepG2, 4 µM) was 39%.

“ATCTGCTTTTTCATGGA (sugars e3 k2 d7 k2 e3, PS)” was tested, and the target mRNA inhibition (HepG2, 3 µM) was 42%.

“ATCTTCCAAGTGATCAT (sugars e2 k2 d9 k2 e2, PS)” gave a target mRNA inhibition (HepG2, 5 µM) of 38%.

With “ATCTTCCAAGTGATCAT (sugars e3 k2 d7 k2 e3, PS)” the target mRNA inhibition (HepG2, 3 µM) was 7%.

In the case of “ATGAACATGGAATCCAT (sugars e3 k2 d7 k2 e3, PS)”, the target mRNA inhibition (HepG2, 3 µM) is reported as 8%.

“ATGTTTATCAGGATACA (sugars e3 k1 d8 k1 e4, linkages s1 o2 s9 o2 s2)” showed a target mRNA inhibition (A431, 0.062 µM) of 7%, a target mRNA inhibition (A431, 0.185 µM) of 18% and a target mRNA inhibition (A431, 0.556 µM) of 38%. For the same sequence, the target mRNA inhibition (A431, 1.667 µM) was 53%, the target mRNA inhibition (A431, 5 µM) was 68% and the target mRNA inhibition (A431, 15 µM) was 79%. The target mRNA inhibition (SH-SY5Y, 0.062 µM) was 4%, the target mRNA inhibition (SH-SY5Y, 0.185 µM) was 30% and the target mRNA inhibition (SH-SY5Y, 0.556 µM) was 51%. The target mRNA inhibition (SH-SY5Y, 1.667 µM) was 68%, the target mRNA inhibition (SH-SY5Y, 5 µM) was 88% and the target mRNA inhibition (SH-SY5Y, 15 µM) was 92%.

“ATGTTTATTGGGCGATC (sugars e3 k2 d7 k2 e3, PS)” showed a target mRNA inhibition (HepG2, 3 µM) of 28%.

Work on “ATTCACAGGCTTGAATG (sugars e2 k2 d9 k2 e2, PS)” yielded a target mRNA inhibition (HepG2, 5 µM) of 29%.

For “ATTGATGATGCCCTGCACTG (sugars e5 d10 e5, PS)”, the target mRNA inhibition (HepG2, 4 µM) was 8%.

In the case of “ATTTCTACAGCTAGCAG (sugars e2 k2 d9 k2 e2, PS)”, the target mRNA inhibition (HepG2, 0.1875 µM) is reported as 10%, the target mRNA inhibition (HepG2, 0.75 µM) is reported as 47% and the target mRNA inhibition (HepG2, 3 µM) is reported as 77%. The target mRNA inhibition (HepG2, 4 µM) was 75% and the target mRNA inhibition (HepG2, 12 µM) was 91%.

With “CAAGTGATCATAAATCA (sugars e2 k2 d8 k2 e3, PS)” the target mRNA inhibition (HepG2, 5 µM) was 47%.

For “CAAGTGATCATAAATCA (sugars e2 k2 d9 k2 e2, PS)”, the target mRNA inhibition (HepG2, 5 µM) was 29%.

“CAAGTTTAATACCCATC (sugars e2 k2 d8 k2 e3, PS)” showed a target mRNA inhibition (HepG2, 5 µM) of 52%.

Sequence “CAATTACACCACAAGCC (sugars e2 k2 d8 k2 e3, PS)” has a target mRNA inhibition (HepG2, 4 µM) of 58%.

Sequence “CACAAGCCAAACGACTTCCA (sugars e5 d10 e5, PS)” has a target mRNA inhibition (HepG2, 5 µM) of 47%.

“CACACCTTCACTGGTCC (sugars e3 k2 d7 k2 e3, PS)” gave a target mRNA inhibition (HepG2, 3 µM) of 12%.

In the case of “CACAGAATCTTCAATAGACA (sugars e5 d10 e5, PS)”, the target mRNA inhibition (HepG2, 5 µM) is reported as 10% and 14%.

In the case of “CACATTGCCCAAGTCTCCAA (sugars e5 d10 e5, PS)”, the target mRNA inhibition (HepG2, 5 µM) is reported as 36% and 19%.

For “CACTACAGGTACTTTAA (sugars e2 k2 d8 k2 e3, PS)”, the target mRNA inhibition (HepG2, 5 µM) was 27%.

Work on “CACTTTTAAGATTACAG (sugars e2 k2 d9 k2 e2, PS)” yielded a target mRNA inhibition (HepG2, 5 µM) of 49%.

In the case of “CAGCAGTCACATTGCCC (sugars e3 k2 d7 k2 e3, PS)”, the target mRNA inhibition (HepG2, 3 µM) is reported as 7%.

Sequence “CAGCTAGCAGGATAACA (sugars e3 k2 d7 k2 e3, PS)” has a target mRNA inhibition (HepG2, 3 µM) of 21%.

For “CAGGATACATTTCTACA (sugars e2 k2 d8 k2 e3, PS)”, the target mRNA inhibition (HepG2, 0.1875 µM) was 30%, the target mRNA inhibition (HepG2, 0.75 µM) was 62% and the target mRNA inhibition (HepG2, 3 µM) was 81%. The target mRNA inhibition (HepG2, 4 µM) was 79% and the target mRNA inhibition (HepG2, 12 µM) was 94%.

“CAGGATACATTTCTACA (sugars e2 k2 d9 k2 e2, PS)” was tested, and the target mRNA inhibition (HepG2, 0.1875 µM) was 38%, the target mRNA inhibition (HepG2, 0.75 µM) was 71% and the target mRNA inhibition (HepG2, 3 µM) was 89%. For the same sequence, the target mRNA inhibition (HepG2, 4 µM) was 85% and 86% and the target mRNA inhibition (HepG2, 12 µM) was 91% and 97%.

Work on “CAGGATACATTTCTACAGCT (sugars e5 d10 e5, linkages sososssssssssssosos)” yielded a target mRNA inhibition (A431, 0.062 µM) of 20%, a target mRNA inhibition (A431, 0.185 µM) of 29% and a target mRNA inhibition (A431, 0.556 µM) of 49%. For the same sequence, the target mRNA inhibition (A431, 1.667 µM) was 69%, the target mRNA inhibition (A431, 5 µM) was 76% and the target mRNA inhibition (A431, 15 µM) was 83%. For the same sequence, the target mRNA inhibition (SH-SY5Y, 0.062 µM) was 0%, the target mRNA inhibition (SH-SY5Y, 0.185 µM) was 17% and the target mRNA inhibition (SH-SY5Y, 0.556 µM) was 39%. It also gave a target mRNA inhibition (SH-SY5Y, 1.667 µM) of 59%, a target mRNA inhibition (SH-SY5Y, 5 µM) of 85% and a target mRNA inhibition (SH-SY5Y, 15 µM) of 82%.

Reference: the OligoGym collection
